Data set [1] in a line: In vivo pharmacokinetic studies (plasma concentration of prototype drug by LC/MS/MS after gavage). As to conditions: ICR male mice fasted overnight, 1 mg/mL suspension in 5% DMSO+30% HP-β-CD, plasma 0-24 h. On the procedure: A proper amount of compound was weighed and 1 mg/mL suspension was prepared using the weighed compound and 5% DMSO+30% HP-β-CD. After ICR male mice fasted overnight, they were administered by gavage and their blood was collected from the jugular venous plexus at different time points of 0, 5 min, 0.25 h, 0.5 h, 1 h, 2 h, 4 h, 8 h, and 24 h. After anticoagulation with EDTA-K2, plasma was separated by centrifugation, and the concentrations of prototype drug in plasma was determined by LC/MS/MS.

Data set [2] in a line: Stability study (lighting, high-temperature, high-humidity, acceleration, intermediate conditions, long-term tests). It is filed as physicochemical. As to conditions: light 4,500 lx; 60° C.; 25° C. RH 92.5% and 72.5%; 40° C./75% RH; 30° C./65% RH; 25° C./60% RH. From the text: A proper amount of compound was weighed and placed in a suitable white transparent open container (such as a weighing bottle or petri dish), the container was placed in a lighting stability test chamber for drugs at an illumination of 4,500 lx±500 lx. The samples were taken for testing 5, 10, and 30 days after the placement.
A proper amount of compound was weighed and placed in a suitable open container (such as a weighing bottle or culture dish), the container was placed in an electric heated air-drying oven at 60° C. The samples were taken for testing 5, 10, and 30 days after the placement.
A proper amount of compound was weighed and placed in suitable open container (such as a weighing bottle or petri dish), the container was placed in a KNO3 saturated solution desiccator at a temperature of 25° C.±2° C. and a relative humidity of 92.5% and 72.5% respectively. The samples were taken for testing 5, 10, and 30 days after the placement.
After packaging an appropriate amount of the compound with inner packaging (pharmaceutical low-density polyethylene film, bag) and outer packaging (polyester/aluminum/polyethylene pharmaceutical composite film, bag), the compound was tested at a temperature of 40° C.±2° C. and a relative humidity of 75%±5%. […]

Take `C[C@@H](COCc1cc2n(n1)CCN(c1ncc(C(F)(F)F)cn1)C2)Nc1cn[nH]c(=O)c1C(F)(F)F` [crystalline form A, (S)-4-(Trifluoromethyl)-5-((1-((5-(5-(trifluoromethyl)pyrimidin-2-yl)-4,5,6,7-tetrahydropyrazolo[1,5-a]pyrazin-2-yl)methoxy)propan-2-yl)amino)pyridazin-3(2H)-one]: the pharmacokinetic properties result in data set [1] is “good pharmacokinetic properties”. Further, in data set [2], the “physical and chemical stability” value is “good physical and chemical stability”.

The values are drawn from patent US20250270223A1, “CRYSTAL OF SUBSTITUTED PIPERAZINE DERIVATIVE AND PREPARATION METHOD THEREFOR” (Kangbaida (Sichuan) Biotechnology Co., Ltd, priority 2022, published 2025).
